Assay results taken from patent USRE46943E1, “Radioprotector compounds and methods” (PETER MACCALLUM CANCER INSTITUTE, priority 2010, dated 2018).
Read-outs that look alike come from different tables or passages of the source.

Experiments:
[1] = tested on: transformed human keratinocyte cell line (FEP 1811); test: Clonogenic survival cell culture assay for cytotoxicity; format: cell-based; settings: un-irradiated keratinocytes, one hour drug exposure, colonies counted after eight days, read-out: C50 (concentration of radioprotector that results in 50% clonogenic survival)
Experimental: • i. […] In appropriate cases, tautomers are drawn to illustrate potential hydrogen-bond donating configurations into the minor groove of DNA. • ii. 2-Amino-4-(5′-(4″-methylpiperazin-1″-yl)benzimidazol-2′-yl)aniline was prepared by hydrogenation of 4-(5′-(4″-methylpiperazin-1″-yl)benzimidazol-2′-yl)-2-nitroaniline, using a modification of the method of Kelly et al, Aust. […] 2-Amino-4-(5′-(piperidin-1″-yl)benzimidazol-2′-yl)aniline was prepared by hydrogenation of 2-nitro-4-(5′-(piperidin-1″-yl)benzimidazol-2′-yl)aniline, using a modification of the method of Kelly et al, Aust. […] Ethyl 4-amino-3-nitrobenzenecarboximidate hydrochloride was prepared by reaction of 4-amino-3-nitrobenzonitrile with dry HCl gas in ethanol, using the method of Kelly et al, Aust. […] 5-(4′-Methylpiperazin-1′-yl)-2-nitroaniline was prepared using a modification of the method of Kelly et al, Aust. […] The following chemicals were obtained from the chemical suppliers indicated: 2-furaldehyde (Aldrich), 2-pyridinecarboxaldehyde (Aldrich), 3-fluoropyridine-2-carbaldehyde (Maybridge), 3-trifluoromethylpyridine-2-carboxaldehyde (Apollo Scientific), 6-methyl-2-pyridinecarboxaldehyde (Matrix Scientific), 5-methylpyridine-2-carbonitrile (Apollo Scientific), 4-methyl-2-pyridinecarbonitrile (Aldrich), 4-chloro-2-pyridinecarbonitrile (Aldrich), 4-methoxypicolinonitrile (Combi-Blocks), pyrazinecarbonitrile (Aldrich), 2-quinolinecarbonitrile (Aldrich), 3-isoquinolinecarbonitrile (Aldrich), 1-isoquinolinecarboxylic acid (Aldrich), indazole-3-carboxylic acid (Aldrich), 2-hydroxynicotinic acid (Aldrich), 4-hydroxypiperidine (Aldrich), 1-methylhomopiperazine (Aldrich), 3-hydroxypiperidine (Aldrich), 4-(N-BOC-amino)piperidine (Aldrich), 4-methoxypiperidine (Acros), 4-methyl-3-nitrobenzonitrile (Aldrich), 5-chloro-2-nitroaniline (Aldrich), 2-cyanopyridine (Aldrich), methyl 4-amino-2-methoxybenzoic acid (Aldrich), 4-(trifluoromethyl)-2-pyridinecarbonitrile (Matrix Scientific), cis-2,6-dimethylmorphoiline (Acros), 5-(trifluoromethyl)-2-pyridinecarbonitrile (Advanced Chemical Intermediates) and 5-fluoro-2-pyridinecarbonitrile (Advanced Chemical Intermediates). • ix. […] Melting points were determined using an Electrothermal melting point apparatus, and are uncorrected. […] The abbreviations s for singlet, d for doublet, t for triplet, q for quartet, br for broad and m for muitiplet were used in the assignments of multiplicity. A value approximating the centre of a multiplet is quoted. […] The addition of a few drops of acetic acid to methanol-d4 solutions was used to enhance solubility for the acquisition of ^13C nmr spectra. Mass spectra were recorded on a Micromass Quattro II mass spectrometer and accurate mass analyses were carried out by the School of Chemistry at the University of Melbourne on a Finnigan LTQ-FT model high resolution mass spectrometer. Thin layer chromatography (TLC) was carried out using Merck silica gel 60 F254 aluminium sheets or Merck neutral aluminium oxide 150 F254 sheets. Flash column chromatography was carried out using Ajax silica gel 230-400 mesh. • xi. […] The details are described in detail in Martin et al (4) (the disclosure of which is included herein in its entirety by way of reference), but briefly, mid-log phase monolayer cultures are incubated with various concentrations of the test drugs for one hour, after which the monolayers are washed and dispersed into single cell suspensions using pronase, and finally appropriate numbers of cells are dispensed into Petri dishes. Colonies are counted after eight days incubation. […] The irradiation (with a dose rate of 0.6 Gy per minute) is started 30 minutes after addition of the test drug. After completion of irradiation, incubation of cultures is continued until the total time of exposure to the drug reaches 60 minutes. Cultures are then washed and plated for clonogenic survival as described for the cytotoxicity experiments.

[2] = tested on: transformed human keratinocyte cell line (FEP 1811); test: Clonogenic survival cell culture assay for radioprotective activity (12 Gy 137Cs gamma irradiation); format: cell-based
Text: PF is defined as a ratio of survival at maximum protection Sm and survival after irradiation only So: PF=Sm/So. DMF is defined as a ratio of doses that result in survival level of Sm in the presence Dp and the absence Dc of radioprotector: DMF=Dp/Dc. DMF10 is define in a similar way except that instead of Sm a survival at 10 microM of radioprotector is used.
PF (Protection Factor) is defined as a ratio of survival at maximum protection Sm and survival after irradiation only So:PF=Sm/So. DMF (Dose Modification Factor) is defined as a ratio of doses that result in survival level of Sm in the presence (Dp) and the absence (Dc) of radioprotector: DMF=Dp/Dc. DMF10 is defined in a similar way except that instead of Sm a survival at 10 microM of radioprotector is used.
• i. […] In appropriate cases, tautomers are drawn to illustrate potential hydrogen-bond donating configurations into the minor groove of DNA. • ii. 2-Amino-4-(5′-(4″-methylpiperazin-1″-yl)benzimidazol-2′-yl)aniline was prepared by hydrogenation of 4-(5′-(4″-methylpiperazin-1″-yl)benzimidazol-2′-yl)-2-nitroaniline, using a modification of the method of Kelly et al, Aust. […] 2-Amino-4-(5′-(piperidin-1″-yl)benzimidazol-2′-yl)aniline was prepared by hydrogenation of 2-nitro-4-(5′-(piperidin-1″-yl)benzimidazol-2′-yl)aniline, using a modification of the method of Kelly et al, Aust. […] Ethyl 4-amino-3-nitrobenzenecarboximidate hydrochloride was prepared by reaction of 4-amino-3-nitrobenzonitrile with dry HCl gas in ethanol, using the method of Kelly et al, Aust. […] 5-(4′-Methylpiperazin-1′-yl)-2-nitroaniline was prepared using a modification of the method of Kelly et al, Aust. […] The following chemicals were obtained from the chemical suppliers indicated: 2-furaldehyde (Aldrich), 2-pyridinecarboxaldehyde (Aldrich), 3-fluoropyridine-2-carbaldehyde (Maybridge), 3-trifluoromethylpyridine-2-carboxaldehyde (Apollo Scientific), 6-methyl-2-pyridinecarboxaldehyde (Matrix Scientific), 5-methylpyridine-2-carbonitrile (Apollo Scientific), 4-methyl-2-pyridinecarbonitrile (Aldrich), 4-chloro-2-pyridinecarbonitrile (Aldrich), 4-methoxypicolinonitrile (Combi-Blocks), pyrazinecarbonitrile (Aldrich), 2-quinolinecarbonitrile (Aldrich), 3-isoquinolinecarbonitrile (Aldrich), 1-isoquinolinecarboxylic acid (Aldrich), indazole-3-carboxylic acid (Aldrich), 2-hydroxynicotinic acid (Aldrich), 4-hydroxypiperidine (Aldrich), 1-methylhomopiperazine (Aldrich), 3-hydroxypiperidine (Aldrich), 4-(N-BOC-amino)piperidine (Aldrich), 4-methoxypiperidine (Acros), 4-methyl-3-nitrobenzonitrile (Aldrich), 5-chloro-2-nitroaniline (Aldrich), 2-cyanopyridine (Aldrich), methyl 4-amino-2-methoxybenzoic acid (Aldrich), 4-(trifluoromethyl)-2-pyridinecarbonitrile (Matrix Scientific), cis-2,6-dimethylmorphoiline (Acros), 5-(trifluoromethyl)-2-pyridinecarbonitrile (Advanced Chemical Intermediates) and 5-fluoro-2-pyridinecarbonitrile (Advanced Chemical Intermediates). • ix. […] Melting points were determined using an Electrothermal melting point apparatus, and are uncorrected. […] The abbreviations s for singlet, d for doublet, t for triplet, q for quartet, br for broad and m for muitiplet were used in the assignments of multiplicity. A value approximating the centre of a multiplet is quoted. […] The addition of a few drops of acetic acid to methanol-d4 solutions was used to enhance solubility for the acquisition of ^13C nmr spectra. Mass spectra were recorded on a Micromass Quattro II mass spectrometer and accurate mass analyses were carried out by the School of Chemistry at the University of Melbourne on a Finnigan LTQ-FT model high resolution mass spectrometer. Thin layer chromatography (TLC) was carried out using Merck silica gel 60 F254 aluminium sheets or Merck neutral aluminium oxide 150 F254 sheets. Flash column chromatography was carried out using Ajax silica gel 230-400 mesh. • xi.

[3] = 12 Gy, 10 microM radioprotector
[4] = 12 Gy, DMF=Dp/Dc at survival level Sm
[5] = 12 Gy, survival at maximum protection vs irradiation only
[6] = Homo sapiens, Keratinocyte, light or radiation study

Molecule | IC50 [1] [µM] | DMF10 (dose modification factor at a concentration of 10 microM of radioprotector) [2] | DMFm (dose modification factor at maximum protection) [2] | PF (protection factor = Sm/So) [2] | DMF10 (dose modification factor at a concentration of 10 microM of radioprotector) [2, 3] | DMFm (dose modification factor at maximum protection) [2, 4] | PF (protection factor = Sm/So) [2, 5] | IC50 [1, 6] [µM]
2-(5′-(5″-(2′″-(dimethylamino)ethoxy)benzimidazol-2″-yl)benzimidazol-2′-yl)pyridine [Example 44] | 146 | 1.50 | 1.88 | 17.6 |  |  |  | 
2-(5′-(5″-(4′″-methylpiperazin-1′″-yl)-1H-indol-2″-yl)benzimidazol-2′-yl)pyridine [Example 53] | 34.1 |  |  |  | 1.21 | 1.30 | 4.9 | 
Cc1cccc(-c2nc3ccc(-c4nc5ccc(N6CCN(C)CC6)cc5[nH]4)cc3[nH]2)n1 [Example 5, 6-Methyl-2-(5′-(5″-(4′″-methylpiperazin-1′″-yl)benzimidazol-2″-yl)benzimidazol-2′-yl)pyridine] |  |  |  |  | 1.12 | 1.22 | 2.5 | 73.3
CN1CCN(c2ccc3[nH]c(-c4ccc5[nH]c(-c6ccc7ccccc7n6)nc5c4)nc3c2)CC1 [Example 13, 2-(5′-(5″-(4′″-Methylpiperazin-1′″-yl)benzimidazol-2″-yl)benzimidazol-2′-yl)quinoline] | 14 |  |  |  | 1.65 | 1.66 | 11.0 | 
CN1CCN(c2ccc3[nH]c(-c4ccc5[nH]c(-c6nn(C)c7ccccc67)nc5c4)nc3c2)CC1 [Example 17, 1-methyl-3-(5′-(5″-(4′″-methylpiperazin-1′″-yl)benzimidazol-2″-yl)benzimidazol-2′-yl)indazole] | 76.5 |  |  |  | 1.27 | 1.68 | 10.9 | 
CCCCN1CCN(c2ccc3nc(-c4ccc5nc(-c6ccccn6)[nH]c5c4)[nH]c3c2)CC1 [Example 34, 2-(5′-(5″-(4′″-Butylpiperazin-1′″-yl)benzimidazol-2″-yl)benzimidazol-2′-yl)pyridine] |  |  |  |  | 2.05 | 2.27 | 27.6 | 47
COCCNc1ccc2[nH]c(-c3ccc4nc(-c5ccccn5)[nH]c4c3)nc2c1 [Example 35, 2-(5′-(5″-(2′″-methoxyethylamino)benzimidazol-2″-yl)benzimidazol-2′-yl)pyridine] |  |  |  |  | 1.66 | 2.19 | 21.9 | 126
c1ccc(-c2nc3ccc(-c4nc5ccc(N6CCSCC6)cc5[nH]4)cc3[nH]2)nc1 [Example 36, 2-(5′-(5″-thiomorpholinobenzimidazol-2″-yl)benzimidazol-2′-yl)pyridine] |  |  |  |  | 1.49 | 1.53 | 16.4 | 31.3
CN(C)C(=O)N1CCN(c2ccc3[nH]c(-c4ccc5[nH]c(-c6ccccn6)nc5c4)nc3c2)CC1 [Example 37, 2-(5′-(5″-(4′″-(dimethylcarbamoyl)piperazin-1 ′″-yl)benzimidazol-2″-yl)benzimidazol-2′-yl)pyridine] | 120 |  |  |  | 1.49 | 1.82 | 34.6 | 
COCCN1CCN(c2ccc3nc(-c4ccc5nc(-c6ccccn6)[nH]c5c4)[nH]c3c2)CC1 [Example 40, 2-(5′-(5″-(4′″-(2″″-methoxyethyl)piperazin-1′″-yl)benzimidazol-2″-yl)benzimidazol-2′-yl)pyridine] |  |  |  |  | 1.77 | 198 | 20.2 | 80.7
CN(C)CCNc1ccc2[nH]c(-c3ccc4[nH]c(-c5ccccn5)nc4c3)nc2c1 [Example 43, 2-(5′-(5″-(2′″-(dimethylamino)ethylamino)benzimidazol-2″-yl)benzimidazol-2′-yl)pyridine] | 118 |  |  |  | 1.28 | 1.61 | 11.2 | 
CN(C)Nc1ccc2[nH]c(-c3ccc4[nH]c(-c5ccccn5)nc4c3)nc2c1 [Example 46, 2-(5′-(5″-(2′″,2′″-dimethylhydrazinyl)benzimidazol-2″-yl)benzimidazol-2′-yl)pyridine] |  |  |  |  | 1.29 | 1.71 | 27.9 | 74.6
